Measurements as given in paper PMC7366380, “Discovery of a Potent and Selective Covalent Inhibitor and Activity-Based Probe for the Deubiquitylating Enzyme UCHL1, with Antifibrotic Activity” (Journal of the American Chemical Society, 2020).

Key:
USP25 = biological target: T1, USP25 (Homo sapiens, UniProt Q9UHP3); assay: Biochemical DUB selectivity profiling assay: USP25; conditions: Ub-Lys-TAMRA 50 nM, buffer B; read-out: Biochemical IC50 range, USP25
T1 sequence (Q9UHP3 1-1055): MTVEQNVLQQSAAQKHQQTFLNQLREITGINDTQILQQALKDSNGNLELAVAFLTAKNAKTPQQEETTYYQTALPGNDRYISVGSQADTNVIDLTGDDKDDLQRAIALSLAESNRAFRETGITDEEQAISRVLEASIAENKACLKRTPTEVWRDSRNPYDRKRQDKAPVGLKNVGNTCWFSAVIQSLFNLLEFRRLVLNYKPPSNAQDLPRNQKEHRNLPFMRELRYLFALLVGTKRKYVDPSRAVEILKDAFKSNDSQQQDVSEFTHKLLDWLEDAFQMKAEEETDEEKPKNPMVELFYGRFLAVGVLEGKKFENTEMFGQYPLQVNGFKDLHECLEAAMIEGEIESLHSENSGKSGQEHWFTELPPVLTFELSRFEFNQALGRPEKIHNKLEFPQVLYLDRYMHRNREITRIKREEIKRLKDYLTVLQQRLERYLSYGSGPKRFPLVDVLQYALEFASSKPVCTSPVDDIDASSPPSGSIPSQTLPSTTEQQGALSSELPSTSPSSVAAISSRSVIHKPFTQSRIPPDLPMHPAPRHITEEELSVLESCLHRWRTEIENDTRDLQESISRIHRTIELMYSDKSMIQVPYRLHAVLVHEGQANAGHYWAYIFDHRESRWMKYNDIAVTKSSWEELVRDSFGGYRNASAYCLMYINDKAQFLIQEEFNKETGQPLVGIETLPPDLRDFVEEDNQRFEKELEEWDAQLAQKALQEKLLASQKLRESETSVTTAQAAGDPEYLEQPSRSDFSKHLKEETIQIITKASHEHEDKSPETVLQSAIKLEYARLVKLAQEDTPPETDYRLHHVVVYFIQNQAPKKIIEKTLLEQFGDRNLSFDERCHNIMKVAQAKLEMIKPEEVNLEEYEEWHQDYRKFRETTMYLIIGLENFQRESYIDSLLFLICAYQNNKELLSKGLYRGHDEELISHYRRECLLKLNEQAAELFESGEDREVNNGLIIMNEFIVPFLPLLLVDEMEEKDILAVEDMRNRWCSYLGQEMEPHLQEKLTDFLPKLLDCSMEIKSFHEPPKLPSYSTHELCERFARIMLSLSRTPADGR
Method: (§1) DUB Assay Substrate Substrate
(§2) Buffer Concentration (nM) […]
(§3) Sepharose® 4B resin (GE Healthcare).
(§4) 10 kDa molecular weight cut-off (MWCO)).
(§5) Fractions containing protein
(§6) Protein concentration was […]
(§7) reaction volume of 21 μL. […]
(§8) compound (final concentration 5 nM).
(§9) IC50 values were determined
(§10) Biochemical DUB selectivity profiling assays […]
(§11) in 40 µL total reaction volume.

USP21 = biological target: T2, USP21 (Homo sapiens, UniProt Q9UK80); assay: biochemical
T2 sequence (Q9UK80 1-565): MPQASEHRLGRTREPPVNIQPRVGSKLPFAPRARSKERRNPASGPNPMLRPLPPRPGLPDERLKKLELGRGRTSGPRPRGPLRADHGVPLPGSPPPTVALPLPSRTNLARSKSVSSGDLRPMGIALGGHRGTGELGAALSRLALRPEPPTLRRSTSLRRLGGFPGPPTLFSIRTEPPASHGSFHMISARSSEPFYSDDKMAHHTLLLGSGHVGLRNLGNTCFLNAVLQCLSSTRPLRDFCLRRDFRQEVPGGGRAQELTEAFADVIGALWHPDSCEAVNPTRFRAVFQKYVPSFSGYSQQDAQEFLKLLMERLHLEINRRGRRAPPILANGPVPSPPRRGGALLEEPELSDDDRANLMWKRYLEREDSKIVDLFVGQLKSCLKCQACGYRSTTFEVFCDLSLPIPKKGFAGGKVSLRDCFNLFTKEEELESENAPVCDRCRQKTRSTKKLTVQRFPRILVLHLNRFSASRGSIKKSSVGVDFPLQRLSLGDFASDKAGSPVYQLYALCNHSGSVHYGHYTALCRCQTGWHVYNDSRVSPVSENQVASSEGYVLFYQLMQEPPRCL

USP4 = biological target: T3, USP4 (Homo sapiens, UniProt Q13107); assay: Biochemical DUB selectivity profiling assay: USP4; conditions: Ub-Lys-TAMRA 50 nM, buffer A; read-out: Biochemical IC50 range, USP4
T3 sequence (Q13107 1-963): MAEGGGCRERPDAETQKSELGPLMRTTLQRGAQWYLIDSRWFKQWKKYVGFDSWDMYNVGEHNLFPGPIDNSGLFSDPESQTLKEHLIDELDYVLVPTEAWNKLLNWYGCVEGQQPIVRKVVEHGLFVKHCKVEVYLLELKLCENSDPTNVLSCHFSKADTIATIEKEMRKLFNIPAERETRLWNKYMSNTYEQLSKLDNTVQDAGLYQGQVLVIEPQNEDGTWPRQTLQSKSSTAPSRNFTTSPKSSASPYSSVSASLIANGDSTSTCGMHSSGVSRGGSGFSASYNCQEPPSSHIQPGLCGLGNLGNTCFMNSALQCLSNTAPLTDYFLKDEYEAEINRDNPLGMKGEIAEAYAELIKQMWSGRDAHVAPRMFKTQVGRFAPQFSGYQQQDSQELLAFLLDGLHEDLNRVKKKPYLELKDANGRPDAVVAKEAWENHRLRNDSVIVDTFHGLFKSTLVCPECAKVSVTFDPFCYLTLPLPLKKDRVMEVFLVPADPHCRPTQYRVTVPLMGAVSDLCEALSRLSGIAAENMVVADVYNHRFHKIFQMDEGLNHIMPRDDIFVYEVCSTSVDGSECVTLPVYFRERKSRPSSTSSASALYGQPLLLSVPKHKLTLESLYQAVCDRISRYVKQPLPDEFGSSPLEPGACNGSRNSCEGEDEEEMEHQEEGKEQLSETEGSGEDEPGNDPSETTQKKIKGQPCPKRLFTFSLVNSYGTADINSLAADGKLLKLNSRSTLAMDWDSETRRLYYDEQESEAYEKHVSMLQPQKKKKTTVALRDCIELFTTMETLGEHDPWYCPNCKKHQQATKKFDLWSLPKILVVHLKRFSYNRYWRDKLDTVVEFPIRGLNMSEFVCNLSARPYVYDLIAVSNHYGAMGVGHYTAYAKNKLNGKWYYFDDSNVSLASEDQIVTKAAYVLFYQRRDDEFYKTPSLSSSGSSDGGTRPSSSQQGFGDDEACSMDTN
Method: as §1, §2, §3, §4, §5, §6, §7, §8, §9, §10, §11

N#CN1CCC[C@H]1C(=O)N1CCc2c(-c3c[nH]c4ncccc34)cccc21 [Compound 1]
IC50 (USP25): > 10 µM | IC50 (USP21): > 10 µM | IC50 (USP4): > 10 µM

C#Cc1cnc2[nH]cc(-c3cccc4c3CCN4C(=O)[C@@H]3CCCN3C#N)c2c1 [Compound 2]
IC50 (USP25): > 10 µM | IC50 (USP4): > 10 µM

N#CN1CCC[C@@H]1C(=O)N1CCc2c(-c3c[nH]c4ncccc34)cccc21 [Compound 3]
IC50 (USP25): > 10 µM | IC50 (USP21): > 10 µM | IC50 (USP4): > 10 µM

CC(=O)O/N=C1\C(=O)N(Cc2cc(Cl)ccc2Cl)c2ccc(Cl)cc21 [LDN-57444, reference compound]
IC50 (USP25): > 10 µM | IC50 (USP21): > 10 µM | IC50 (USP4): > 10 µM
